Molecular target: Cyclin-dependent kinase 2/cyclin E1 (Homo sapiens) (UniProt P24864+P24941)
Test: Inhibition of C-terminal Avi-tagged CDK2/Cyclin E1 (unknown origin) extracted from Escherichia coli assessed as reduction in RB1 phosphorylation at S780 residue incubated for 60 mins in the presence of ATP by TR-FRET assay
Type: protein-complex assay

Compound	INH [µM]
O=C1N([C@@H]2CCC[C@@H](O)C2)c2nc(Nc3c[nH]nc3[C@H]3CC3(F)F)ncc2C12CC2	0.006
O=C1N([C@@H]2CCC[C@@H](O)C2)c2nc(Nc3c[nH]nc3-c3cnn4cccnc34)ncc2C12CC2	0.006
O=C1N([C@@H]2CCC[C@@H](O)C2)c2nc(Nc3c[nH]nc3C(F)F)ncc2C12CC2	0.007
O=C1N([C@@H]2CCC[C@@H](O)C2)c2nc(Nc3c[nH]nc3OCC(F)F)ncc2C12CC2	0.005
O=C1N([C@@H]2CCC[C@@H](O)C2)c2nc(Nc3c[nH]nc3O[C@@H]3CC3(F)F)ncc2C12CC2	0.006
O=C1N([C@@H]2CCC[C@@H](O)C2)c2nc(Nc3c[nH]nc3O[C@H]3CC3(F)F)ncc2C12CC2	0.006

Reference: ChEMBL document CHEMBL6121025, “Novel Compounds as CDK2 Inhibitors for Treating Cancer” (ACS Med Chem Lett, 2025)
